Measurements taken from article PMC10667816, “A Cell‐Penetrant Peptide Disrupting the Transcription Factor CP2c Complexes Induces Cancer‐Specific Synthetic Lethality” (Advanced Science, 2023).
Where a SMILES comes first, the peptide text is derived from it.

Assays:
[1] = test system: human stem cells (hMSCs and hESCs), mouse embryonic fibroblasts (MEFs), and human non‐transformed cell lines (BEAS‐2B and MCF10A); experiment: MTT growth inhibition in stem and non‐transformed cells; assay type: cell-based; conditions: concentration of 1 mM
Method: (§1) Various cell lines were treated with peptides, either alone or in combination with the CASP2 inhibitor (Ac‐VDVAD‐CHO; Enzo ALX‐260‐058‐M001) at various concentrations for 4 days. Cell viability was assessed on day 2 or day 4 using MTT (3‐(4,5‐dimethylthiazol‐2‐yl)‐2,5‐diphenyltetrazolium bromide; Sigma–Aldrich, M2128) assay. In brief, fresh cells were seeded in flat‐bottomed 96‐well tissue culture plates at appropriate concentrations for each cell line per well using complete culture medium. The cells were incubated in 100 µL of culture medium containing various concentration of chemicals or peptides at 37 °C for 0 to 96 h. A solution of MTT (5 mg mL^−1) was added to the culture medium, and the cells were further incubated at 37 °C for an additional 3 h. The MTT medium was then removed, and the formazan crystals were dissolved in DMSO (100 µL per well). The formazan concentration was measured spectrophotometrically at 490 nm using a Varioskan Flash Spectral Scanning Multimode Reader (Thermo Scientific Korea). Nonlinear regression curves for growth inhibition and GI50 values for each cell line were estimated from independent replicates using the Prism (version 6) software (GraphPad Software Inc.)

[2] = test system: over 450 human kinases or disease‐relevant mutant variants; experiment: KINOMEscan screening; assay type: binding
[3] = test system: cisplatin‐resistant cancer cells; experiment: Growth inhibition in cisplatin‐resistant cancer cells; assay type: cell-based, human; conditions: cisplatin‐resistant variants of Hep3B, HCT116, MDA‐MB‐231
Method: Information of the cell lines is listed in Table S1 (Supporting Information), including their origin and culture conditions. All cell lines were cultured at 37 °C, 5% CO2 incubator. MDA‐MB‐231 (LM1), HepG2, Hep3B, and HCT116 cell lines were authenticated with short tandem repeat markers based on ATCC information. All cell lines tested negative for mycoplasma contamination. Transient downregulation of the gene of interest was conducted by siRNA transfection using Lipofectamine 2000 (Thermo Fisher, 11668019) according to the manufacturer's instructions. Information about siRNAs is provided in Table S2 (Supporting Information). […] For erythroid terminal differentiation experiments, differentiation was assessed by hemoglobin staining using a 0.2% (w/v) tetramethylbenzidine solution (Sigma–Aldrich, T0440) in 0.6% hydrogen peroxide, 3% acetic acid for 10 min in dark condition. Benzidine‐positive or negative cell numbers were counted under the inverted microscope BX50 (Olympus) at 200 × magnification. […] After each synchronization, cells were fixed at 4‐h intervals for 24 h with ACP52C treatment, and the cell cycle was analyzed by Propidium Iodide (PI) staining or intracellular protein was analyzed by immunofluorescence. […] This development period was repeated four times for one round, after which GI50 concentrations were re‐assessed in each resistant cell line. […]

[4] = test system: ACP52C‐resistant cancer cell lines; experiment: Growth inhibition of resistant cells with CASP2 inhibition; assay type: cell-based, human; conditions: combined with CASP2 inhibiting peptide Ac‐VDVAD‐CHO (10 µM)
Method: as §1

[5] = biological target: CP2c complexes (Homo sapiens, UniProt Q12800); experiment: In vitro IP and pulldown assays of CP2c complexes; assay type: biochemical; conditions: regardless of the presence of probe DNA
Method: Cells were lysed with lysis buffer (50 mM Tris‐HCl, pH 7.4, 150 mM NaCl, 1 mM EDTA, 0.1% triton X‐100, and 1 mM PMSF) with freshly added 1 mM DTT and a protease inhibitor cocktail. Input samples (10% of whole lysate) were saved from each lysate for WB analysis. For immunoprecipitation, precleared extracts were incubated overnight at 4 °C with 10 µL Protein A/G agarose beads, pre‐incubated with 2 µg of the primary antibodies (Table S4, Supporting Information). The immune complexes were washed 3 times with lysis buffer, and bound proteins were eluted with 2X bed volume of 0.2 M glycine buffer, followed by neutralization with an equal volume of 1 M Tris‐HCl, pH 8.0. For Flag tag immunoprecipitation, precleared extracts were incubated with 2 µL of Flag‐M2 beads (Sigma–Aldrich, A2220) by rotating overnight at 4 °C. The immune complexes were washed 3 times with lysis buffer, bound proteins were eluted with 100 µg mL^−1 Flag peptide (Sigma–Aldrich, F4799). Precipitated proteins were analyzed using western blot.
Biotinylated‐DNA fragments or ‐peptides and GST‐fused CP2c, whole‐ or nuclear‐ extracts of MDA‐MB‐231 cells were used for the analyze the interaction of peptide or DNA with CP2c. Nuclear extracts were extracted by the method described elsewhere.^[ [14] ^] […] The radioactivity of the eluted probe was measured by scintillation counting. […]

Sequence of CP2c complexes (Q12800 whole entry, one chain of several): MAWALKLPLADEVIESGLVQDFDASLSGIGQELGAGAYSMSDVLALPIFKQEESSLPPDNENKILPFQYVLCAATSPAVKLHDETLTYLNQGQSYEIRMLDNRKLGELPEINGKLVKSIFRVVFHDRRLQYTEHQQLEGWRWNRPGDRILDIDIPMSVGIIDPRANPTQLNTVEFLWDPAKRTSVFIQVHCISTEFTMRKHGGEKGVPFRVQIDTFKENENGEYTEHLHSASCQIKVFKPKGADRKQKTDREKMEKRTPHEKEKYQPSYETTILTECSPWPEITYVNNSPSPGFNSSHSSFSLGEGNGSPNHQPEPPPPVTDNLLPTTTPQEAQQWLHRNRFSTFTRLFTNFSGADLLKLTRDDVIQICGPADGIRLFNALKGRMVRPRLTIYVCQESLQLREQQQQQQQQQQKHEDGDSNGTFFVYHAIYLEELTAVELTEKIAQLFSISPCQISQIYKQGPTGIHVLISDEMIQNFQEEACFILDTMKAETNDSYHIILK

Structure (SMILES) | growth inhibition [1] | interactions with kinases [2] | anticancer activity in cisplatin‐resistant cells [3] | sensitization by combined treatment [4] | dissociation of CP2c complexes [5]
CC(=O)N[C@@H](CC(N)=O)C(=O)N[C@@H](Cc1ccc(O)cc1)C(=O)N1CCC[C@H]1C(=O)N[C@@H](CCC(N)=O)C(=O)N[C@@H](CCCNC(=N)N)C(=O)N1CCC[C@H]1C(=O)N[C@@H](CS)C(=O)N[C@@H](CCCNC(=N)N)C(=O)NCC(=O)N[C@@H](CC(=O)O)C(=O)N[C@@H](CCCCN)C(=O)NCC(=O)N1CCC[C@H]1C(=O)N[C@@H](CC(=O)O)C(=O)N[C@@H](CS)C(N)=O [ACP52C] (Ac-NYPQRPCRGDKGPDC-NH2) | minimal to zero growth inhibition | did not exhibit interactions | effectiveness in targeting cisplatin‐resistant cancer cells | sensitized ACP52C‐resistant cancer cell lines | 
CCOc1ccccc1C1CC(=O)Nc2cc3c(cc21)OCO3 (centres unmarked) [FQI1, Factor Quinolinone Inhibitor 1, reference compound] |  |  |  |  | only slight perturbation of CP2c complexes
